Measured values as given in patent publication US10912741B2, “Prevention of liver cancer with safranal-based formulations” (United Arab Emirates University, priority 2019, dated 2021).

Legend:
[1] = test system: NF-kB-p65 nuclear localization; assay: NF-kB-p65 nuclear localization in nuclear extracts; type: in vivo, albino Wistar rats; conditions: animal groups pre-treated with safranal (DEN-exposed)
Description: DEN, 2-AAF, 5, 5′-dithiobis-(2-nitrobenzoic acid thiobarbituric acid, Folin's reagent, pyrogallol, SOD enzyme, H2O2, and bovine albumin were obtained from Sigma Chemical Co. (St. Louis, Mo.). Nf-kB nuclear localization assay kit was purchased from (Ser. No. 10/007,889, Cayman Chemical Company, Ann Arbor, Mich., USA).
(§1) The experimental hepatocarcinogenesis model was developed according to a protocol by Espandiaria et al. that was adapted for our purposes. To initiate and promote hepatocarcinogenesis, diethylnitrosamine (DEN) and 2-acetylaminofluorene (2-AAF) were used, respectively. For hepatocarcinogenesis initiation in this model, a single DEN dose (200 mg/kg b.wt.) dissolved in saline was injected intraperitoneally. After initiation, all rats underwent one period of 5-days fasting, as mitotic proliferative stimuli. To promote hepatocarcinogenesis, 2-acetylaminofluorene (2-AAF) was introduced in the form of six daily intragastric doses (30 mg/kg in 1% Tween 80); two weeks after DEN treatment.
(§2) Safranal at doses of 25 mg/kg by weight (b.wt.) and 50 mg/kg b.wt, was administrated orally to rats. These doses have been reported to suppress chemically-induced oxidative damage in rats. A total of 40 adult male albino Wistar rats were randomly divided into […] (n=8) and were subjected to different treatments. […]

[2] = test system: foci of altered hepatocytes (FAH); assay: Histopathology (H&E) of liver, foci of altered hepatocytes; type: in vivo, albino Wistar rats
Procedure: as §1
as §2, with “treatments. Group 1 (control) was orally administered distilled water (5 ml/kg b.wt.) throughout the experimental duration and were injected with a single dose of saline. Group 2 (Safranal only) was subjected to a safranal dose (50 mg/kg b.wt.) through oral administration for the duration of the experimental period.” for “treatments.”

[3] = test system: HeLa cells; conditions: reported in the background; cited from earlier work
[4] = test system: HDAC; assay: HDAC colorimetric assay in liver homogenate; type: in vivo, albino Wistar rats
Procedure: as §1
as §2, with “treatments. Group 1 (control) was orally administered distilled water (5 ml/kg b.wt.) throughout the experimental duration and were injected with a single dose of saline. Group 2 (Safranal only) was subjected to a safranal dose (50 mg/kg b.wt.) through oral administration for the duration of the experimental period.” for “treatments.”

CC1=C(C=O)C(C)(C)CC=C1 [Safranal, 2,6,6-trimethylcyclohexa-1,3-diene-1-carbaldehyde]
NF-kB-p65 level in nuclear extracts [1]: parallel decrease in NF-kB-p65 level in nuclear extracts | number and size of hepatocellular nodules (FAH) ([2]; protective groups, DEN-2-AAF rats + low/high doses of safranal (25/50 mg/kg b.wt.)): remarkably decrease in number and size | hepatocellular nodules (FAH) in liver sections ([2]; treatment with safranal alone (group 2, 50 mg/kg b.wt.)): abolished such hepatocellular nodules almost completely | growth of HeLa cells [3]: inhibit the growth of HeLa cells | HDAC activity in liver ([4]; low/high doses of safranal, DEN-treated (groups 4-5)): restored HDAC activity to the normal range | HDAC activity in liver ([4]; safranal alone (group 2), compared to control): did not change HDAC activity
